Test results: patent US4252806A, “Triazoloquinolones” (Mead Johnson & Company, priority 1979, dated 1981)

Key:
[1] = Lethal toxicity (ALD50) and first signs of pharmacologic activity (ATD50) in mice; details: mouse, in vivo, oral, groups of 10, given as part of ALD50/ATD50 ratio; for TD50: read-out: ATD50 (dose at which signs of pharmacologic activity are first evidenced)
Experimental: In groups of 10 mice treated variously with geometrically increasing doses of test compound of from 125 mg./kg. to 2,000 mg./kg., the lethal toxicity (ALD50) and the dose at which signs of pharmacologic activity are first evidenced (ATD50) can be estimated. […] The ALD50 /ATD50 ratio (mg. per kg. body wt./mg. per kg. body wt.) for the compound of Procedure 4 is 2,000/125-250 and for that of Procedure 6 is >2,000/8-15.7. The ratio for trazodone is 940/2-4. Thus, the present substances have less than one-half the lethal toxicity of trazodone and from less than one-half to one-fiftieth the propensity for producing overt signs of physiological effect (ATD50) on oral administration to mice. More particularly, the present substances exert less of a depressant effect on the central nervous system as reflected by less deficit in motor coordination, less interference with normal motor activity, and less analgetic effect than trazodone. Laboratory test data with respect to these properties are arranged below.

[2] = Prevention of reserpine ptosis in mice (oral pretreatment); assay type: in vivo; details: Mus musculus, test drug oral (per os) before reserpine 2.0 mg./kg. intravenously
[3] = Mouse, tail clip (analgetic); assay type: in vivo; details: oral
From the text: ^1 Bianchi, et al., Brit. J. of Pharmacology 9, 280 (1954).

[4] = Inhibition of pernicious preening in mice (antipsychotic or analgetic); assay type: in vivo; details: Mus musculus, oral, read-out: ED50, inhibition of pernicious preening (anti psychotic or analgetic)
From the text: Inhibition of pernicious
psychotic or analgetic)^6
^6 Wilfon, et al., Federation Proceedings 19, 21 (1960).

[5] = CNS depression in mice: antagonism of foot shock induced aggression; assay type: in vivo; details: Mus musculus, oral
From the text: Antagonism of foot shock
^5 Tedeschi, et al., J. Pharmacol. & Exptl. Ther. 125, 28 (1959).

[6] = Reduction of phenylquinone writhing in mice (analgetic); assay type: in vivo; details: Mus musculus, oral
From the text: Reduction of phenylquinone
^2 Hendershot, et al., J. Pharmcol. & Exptl. Ther. 125, 237 (1959).

[7] = Suppression of conditioned avoidance response; assay type: in vivo; details: oral; for suppression of conditioned avoidance response, activity in words: at 100 mg/kg
From the text: |Suppression of conditioned |avoidance response | ^7 Albert, et al., Pharmacologist 4, 152 (1962).

[8] = Reduction of spontaneous motor activity in mice; assay type: in vivo; details: oral
[9] = Rotorod method for motor incordination in mice; assay type: in vivo; details: oral
From the text: Rotorod method for motor
^4 Kinnaird, et al., J. Pharmacol. & Exptl.
Cutting, et al., Archives Int. Pharmacodyn.

[10] = various animal tests, U.S. Pat. No. 3,381,009; cited from earlier work
[11] = clinical use, vs imipramine; cited from earlier work

Cc1cc2nn(CCCN3CCN(c4cccc(Cl)c4)CC3)c(=O)n2c2ccccc12 [Procedure 6]
LD50 [1]: > 2000 mg/kg | TD50 [1]: 8 to 15.7 mg/kg | ED50 [2]: 27 mg/kg | tail clip (analgetic), activity in words ([3]; at 200 (mg./kg.)): inactive | ED50 [4]: 62 mg/kg | ED50 [5]: 36.5 mg/kg | ED50 [6]: 51.8 mg/kg | suppression of conditioned avoidance response, activity in words [7]: inactive | reduction of spontaneous motor activity, activity in words ([8]; at 20, 40, & 80 (mg./kg.)): inactive

O=c1n(CCCN2CCN(c3cccc(Cl)c3)CC2)nc2ccc3ccccc3n12 [Procedure 4, 2-[3-[4-(3-Chlorophenyl)-1-piperazinyl]propyl]-1,2,4-triazolo[4,3-a]quinolin-3(2H)-one]
LD50 [1]: 2000 mg/kg | TD50 [1]: 125 to 250 mg/kg | Rotorod method for motor incordination, activity in words ([9]; at 800 (mg./kg.)): inactive | ED50 [2]: 29 mg/kg | ED50 [3]: 200 mg/kg | ED50 [4]: 24 mg/kg | ED50 [5]: 54 mg/kg | ED50 [6]: 40.5 mg/kg | suppression of conditioned avoidance response, activity in words [7]: inactive | AED-0.3, reduction of spontaneous motor activity [8]: 80 mg/kg

O=c1n(CCCN2CCN(c3cccc(Cl)c3)CC2)nc2ccccn12 [trazodone, 2-[3-[4-(3-chlorophenyl)-1-piperazinyl]propyl]-1,2,4-triazolo[4,3-a]pyridin-3(2H)-one, reference compound]
LD50 [1]: 940 mg/kg | TD50 [1]: 2 to 4 mg/kg | pharmacological actions [10]: tranquilizing action, hypotensive action, and analgesic action | TD50 ([9]; mouse, in vivo, read-out: ED50, Rotorod method for motor incordination): 44.4 mg/kg | clinical antidepressant effectiveness and side effects [11]: antidepressant equivalent in effectiveness to imipramine but with fewer side effects | ED50 [2]: 36 mg/kg | ED50 [3]: 55.5 mg/kg | ED50 [4]: 43 mg/kg | ED50 [5]: 22.2 mg/kg | ED50 [6]: 21.8 mg/kg | ED50 [7]: 131 mg/kg | AED-0.3, reduction of spontaneous motor activity [8]: 15.3 mg/kg
